Literature values in patent US7329690B2, “Effectiveness of invertebrate pest-control agents” (FMC Corporation, priority 2001, dated 2008).

Structure (SMILES): O=[N+]([O-])NC1=NCCN1Cc1ccc(Cl)nc1 [imidacloprid]
- water solubility: 610 ppm
